# Reference: ChEMBL document CHEMBL1201862, “PubChem BioAssay data set” (2004)
#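 The compound was tested at five concentrations on cells cultured in 96-well plates, with a 48-hour exposure period. GI50 = concentration required for 50% inhibition of growth.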 The source made the active and inactive calls. Rule as the data show it: active = GI50 up to about 1.1 µM and inactive = higher.
# How the values were obtained:
# Assay in all cases: NCI tumour cell line growth inhibition, 48 h
# RPMI-8226 = test system: RPMI-8226
# BT-549 = test system: BT-549
# PC-3 = test system: PC-3
# RXF 393 = test system: RXF 393
# Malme-3M = test system: Malme-3M
# SNB-19 = test system: SNB-19
# MDA-MB-231 = test system: MDA-MB-231
# HCC 2998 = test system: HCC 2998
# NCI/ADR-RES = test system: NCI/ADR-RES
# SF-539 = test system: SF-539
# K562 = test system: K562
# U-251 = test system: U-251
# SN12C = test system: SN12C
# CCRF-CEM = test system: CCRF-CEM
# SK-MEL-28 = test system: SK-MEL-28
# IGROV-1 = test system: IGROV-1
# DU-145 = test system: DU-145
# HL-60 = test system: HL-60
# OVCAR-5 = test system: OVCAR-5
# HCT-15 = test system: HCT-15
# OVCAR-8 = test system: OVCAR-8
# SK-MEL-5 = test system: SK-MEL-5
# ACHN = test system: ACHN
# EKVX = test system: EKVX
# MOLT-4 = test system: MOLT-4
# SR = test system: SR
# 786-0 = test system: 786-0
# UO-31 = test system: UO-31
# COLO 205 = test system: COLO 205
# LOX IMVI = test system: LOX IMVI
# NCI-H460 = test system: NCI-H460
# HOP-92 = test system: HOP-92
# HCT-116 = test system: HCT-116
# KM12 = test system: KM12
# M14 = test system: M14
# Hs-578T = test system: Hs-578T
# SK-MEL-2 = test system: SK-MEL-2
# CAKI-1 = test system: CAKI-1
# NCI-H522 = test system: NCI-H522
# OVCAR-4 = test system: OVCAR-4
# NCI-H226 = test system: NCI-H226
# TK-10 = test system: TK-10
# A498 = test system: A498
# HT-29 = test system: HT-29
# MDA-MB-435 = test system: MDA-MB-435
# T47D = test system: T47D
# UACC-62 = test system: UACC-62
# MDA-N = test system: MDA-N
# NCI-H23 = test system: NCI-H23
# SF-268 = test system: SF-268
# UACC-257 = test system: UACC-257
# SNB-75 = test system: SNB-75
# A549 = test system: A549
# SW-620 = test system: SW-620
# MCF7 = test system: MCF7
# OVCAR-3 = test system: OVCAR-3
# HOP-62 = test system: HOP-62
# SK-OV-3 = test system: SK-OV-3
# SF-295 = test system: SF-295
compound,measurement,setting,value
O=C1C(Cl)C2(CC(/C=C/c3cccs3)=NN2c2cccc(S(=O)(=O)O)c2)N1c1nc2ccccc2s1 (stereo not drawn),GI50,RPMI-8226,47 µM (inactive)
same,GI50,BT-549,55.6 µM (inactive)
same,GI50,PC-3,> 100 µM (inactive)
same,GI50,RXF 393,> 100 µM (inactive)
same,GI50,Malme-3M,> 100 µM (inactive)
same,GI50,SNB-19,> 100 µM (inactive)
same,GI50,MDA-MB-231,> 100 µM (inactive)
same,GI50,HCC 2998,> 100 µM (inactive)
same,GI50,NCI/ADR-RES,> 100 µM (inactive)
same,GI50,SF-539,> 100 µM (inactive)
same,GI50,K562,35.6 µM (inactive)
same,GI50,U-251,99.8 µM (inactive)
same,GI50,SN12C,> 100 µM (inactive)
same,GI50,CCRF-CEM,20.1 µM (inactive)
same,GI50,SK-MEL-28,> 100 µM (inactive)
same,GI50,IGROV-1,21.1 µM (inactive)
same,GI50,DU-145,21.6 µM (inactive)
same,GI50,HL-60,64.6 µM (inactive)
same,GI50,OVCAR-5,> 100 µM (inactive)
same,GI50,HCT-15,75.9 µM
same,GI50,OVCAR-8,41.7 µM (inactive)
same,GI50,SK-MEL-5,16.9 µM (inactive)
same,GI50,ACHN,58.3 µM (inactive)
same,GI50,EKVX,24.2 µM (inactive)
same,GI50,MOLT-4,31.5 µM (inactive)
same,GI50,SR,29.9 µM (inactive)
same,GI50,786-0,94.6 µM (inactive)
same,GI50,UO-31,10.9 µM (inactive)
same,GI50,COLO 205,> 100 µM (inactive)
same,GI50,LOX IMVI,15.1 µM (inactive)
same,GI50,NCI-H460,31.1 µM (inactive)
same,GI50,HOP-92,1.79 µM (inactive)
same,GI50,HCT-116,> 100 µM (inactive)
same,GI50,KM12,> 100 µM (inactive)
same,GI50,M14,99.3 µM (inactive)
same,GI50,Hs-578T,> 100 µM (inactive)
same,GI50,SK-MEL-2,> 100 µM (inactive)
same,GI50,CAKI-1,37.1 µM (inactive)
same,GI50,NCI-H522,18.2 µM (inactive)
same,GI50,OVCAR-4,71.3 µM (inactive)
same,GI50,NCI-H226,27.9 µM (inactive)
same,GI50,TK-10,19.3 µM (inactive)
same,GI50,A498,76.2 µM (inactive)
same,GI50,HT-29,73.5 µM (inactive)
same,GI50,MDA-MB-435,45.8 µM (inactive)
same,GI50,T47D,13.6 µM (inactive)
same,GI50,UACC-62,59.6 µM (inactive)
same,GI50,MDA-N,> 100 µM (inactive)
same,GI50,NCI-H23,27.8 µM (inactive)
same,GI50,SF-268,> 100 µM (inactive)
same,GI50,UACC-257,76.9 µM (inactive)
same,GI50,SNB-75,49.9 µM (inactive)
same,GI50,A549,42 µM (inactive)
same,GI50,SW-620,> 100 µM (inactive)
same,GI50,MCF7,46.6 µM (inactive)
COc1nc(N=P(c2ccccc2)(c2ccccc2)c2ccccc2)cc(=O)n1C,GI50,RPMI-8226,> 100 µM (inactive)
same,GI50,BT-549,> 100 µM (inactive)
same,GI50,OVCAR-3,> 100 µM (inactive)
same,GI50,PC-3,> 100 µM (inactive)
same,GI50,RXF 393,> 100 µM (inactive)
same,GI50,SNB-19,> 100 µM (inactive)
same,GI50,MDA-MB-231,> 100 µM (inactive)
same,GI50,HCC 2998,> 100 µM (inactive)
same,GI50,HOP-62,> 100 µM (inactive)
same,GI50,NCI/ADR-RES,> 100 µM (inactive)
same,GI50,SF-539,> 100 µM (inactive)
same,GI50,K562,> 100 µM (inactive)
same,GI50,U-251,> 100 µM (inactive)
same,GI50,SN12C,> 100 µM (inactive)
same,GI50,CCRF-CEM,> 100 µM (inactive)
same,GI50,SK-MEL-28,> 100 µM (inactive)
same,GI50,IGROV-1,> 100 µM (inactive)
same,GI50,DU-145,> 100 µM (inactive)
same,GI50,HL-60,> 100 µM (inactive)
same,GI50,OVCAR-5,> 100 µM (inactive)
same,GI50,HCT-15,> 100 µM
same,GI50,OVCAR-8,> 100 µM (inactive)
same,GI50,SK-MEL-5,> 100 µM (inactive)
same,GI50,ACHN,> 100 µM (inactive)
same,GI50,EKVX,> 100 µM (inactive)
same,GI50,MOLT-4,> 100 µM (inactive)
same,GI50,SR,0.0233 µM (active)
same,GI50,786-0,> 100 µM (inactive)
same,GI50,UO-31,> 100 µM (inactive)
same,GI50,SK-OV-3,> 100 µM (inactive)
same,GI50,COLO 205,> 100 µM (inactive)
same,GI50,LOX IMVI,> 100 µM (inactive)
same,GI50,NCI-H460,> 100 µM (inactive)
same,GI50,HOP-92,> 100 µM (inactive)
same,GI50,HCT-116,> 100 µM (inactive)
same,GI50,KM12,> 100 µM (inactive)
same,GI50,M14,> 100 µM (inactive)
same,GI50,Hs-578T,> 100 µM (inactive)
same,GI50,SK-MEL-2,> 100 µM (inactive)
same,GI50,SF-295,> 100 µM (inactive)
same,GI50,CAKI-1,> 100 µM (inactive)
same,GI50,NCI-H522,> 100 µM (inactive)
same,GI50,OVCAR-4,> 100 µM (inactive)
same,GI50,NCI-H226,> 100 µM (inactive)
same,GI50,TK-10,> 100 µM (inactive)
same,GI50,A498,> 100 µM (inactive)
same,GI50,HT-29,> 100 µM (inactive)
same,GI50,MDA-MB-435,> 100 µM (inactive)
same,GI50,T47D,> 100 µM (inactive)
same,GI50,UACC-62,> 100 µM (inactive)
same,GI50,MDA-N,> 100 µM (inactive)
same,GI50,NCI-H23,> 100 µM (inactive)
same,GI50,SF-268,> 100 µM (inactive)
same,GI50,UACC-257,> 100 µM (inactive)
same,GI50,SNB-75,54.8 µM (inactive)
same,GI50,A549,> 100 µM (inactive)
same,GI50,SW-620,> 100 µM (inactive)
same,GI50,MCF7,> 100 µM (inactive)
